From patent US7078556B2, “Antibiotics Cyan-416 A, Cyan-416 B, Cyan-416 C, Cyan-416 D and Cyan-416 E, and ester derivatives of Cyan-416 B” (Wyeth Holdings Corporation, priority 2002, dated 2006)
Converted amounts (≈) assume the structure as drawn. Where two headings read alike, the source gives them in different places.

Experiments:
Test in all cases: MIC by broth dilution
Format in all cases: cell-based
Candida albicans GC 3066 = conditions: GC3066, 18 h
Protocol: (§1) The minimum inhibitory concentration (MIC), the lowest concentration of the antibiotic which inhibits growth of the test organism, is determined by the broth dilution method using Muller-Hinton II […] (Baltimore Biological Laboratories) following the recommendations of the National Committee for Clinical Laboratory Standards [Methods for dilution antimicrobial susceptibility tests for bacteria that grow aerobically. Approved standard M7-A2. National Committee for Clinical Laboratory Standards, Villanova, Pa].
(§2) An inoculum level of 5×10^5 CFU/ml, and a range of antibiotic concentrations (64–0.06 μg/ml) is used. The MIC is determined after the microtiter plates are incubated for 18 hours at 35° C. in an ambient air incubator. The test organisms comprise a spectrum of the Gram-positive bacteria Staphylococcus aureus, Streptococcus pneumoniae, and Enterococcus sp., the Gram-negative bacteria Escherichia coli, and the yeast Candida albicans. These organisms include recent clinical isolates that are resistant to methicillin and vancomycin. MIC data of Cyan-416 A–E are listed in Table 1 and MIC data of ester derivatives of Cyan-416 B (Formula I) are listed in Table 2.

[1] = tested on: Enterococcus faecalis GC 2242
Protocol: as §1, §2

[2] = tested on: Enterococcus faecalis GC 4555
Protocol: as §1, §2

[3] = tested on: Enterococcus faecalis GC 6189; conditions: GC6189, Table 2, 18 hours at 35° C.
Protocol: as §1, §2

[4] = tested on: Enterococcus faecalis GC 842; conditions: GC842, Table 1, 18 hours at 35° C.
Protocol: as §1, §2

[5] = tested on: Enterococcus faecium 4558; conditions: Table 2, 18 hours at 35° C.
Protocol: as §1, §2

[6] = tested on: Enterococcus faecium GC 2243; conditions: GC2243, Table 2, 18 hours at 35° C.
Protocol: as §1, §2

[7] = tested on: Enterococcus faecium GC 4556; conditions: GC4556, Table 2, 18 hours at 35° C.
Protocol: as §1, §2

Escherichia coli GC 2203 = conditions: GC2203, 18 h
Protocol: as §1, §2

[8] = tested on: Escherichia coli GC 4560 (imp)
Protocol: as §1, §2

[9] = tested on: Staphylococcus aureus GC 1131
Protocol: as §1, §2

[10] = tested on: Staphylococcus aureus GC 2216
Protocol: as §1, §2

[11] = tested on: Staphylococcus aureus GC 4536; conditions: GC4536, Table 1, 18 hours at 35° C.
Protocol: as §1, §2

[12] = tested on: Staphylococcus aureus GC 4541; conditions: GC4541, Table 2, 18 hours at 35° C.
Protocol: as §1, §2

[13] = tested on: Staphylococcus aureus GC 4543; conditions: GC4543, Table 2, 18 hours at 35° C.
Protocol: as §1, §2

[14] = tested on: Staphylococcus haemolyticus GC 4547; conditions: GC4547, Table 2, 18 hours at 35° C.
Protocol: as §1, §2

[15] = tested on: Streptococcus pneumoniae GC 1894; conditions: GC1894, Table 2, 18 hours at 35° C.
Protocol: as §1, §2

[16] = tested on: Streptococcus pneumoniae GC 6242; conditions: GC6242, Table 2, 18 hours at 35° C.
Protocol: as §1, §2

[17] = tested on: Pseudomonas aeruginosa GC 2214; conditions: GC2214, Table 1, 18 hours at 35° C.
[18] = GC2242, Table 1, 18 hours at 35° C., read-out: MIC
[19] = GC4555, Table 1, 18 hours at 35° C., read-out: MIC
[20] = Table 1, Escherichia coli GC 2203, 18 hours at 35° C.
[21] = Table 2, Escherichia coli coli GC 2203, 18 hours at 35° C.
[22] = GC1131, Table 1, 18 hours at 35° C., read-out: MIC
[23] = GC2216, Table 1, 18 hours at 35° C., read-out: MIC
[24] = GC2242, Table 2, 18 hours at 35° C., read-out: MIC
[25] = GC4555, Table 2, 18 hours at 35° C., read-out: MIC
[26] = GC1131, Table 2, 18 hours at 35° C., read-out: MIC
[27] = GC2216, Table 2, 18 hours at 35° C., read-out: MIC

| SMILES | MIC (Candida albicans GC 3066; Table 1, 18 hours at 35° C.) [µg/mL] | MIC (Candida albicans GC 3066; Table 2, 18 hours at 35° C.) [µg/mL] | MIC [1, 18] [µg/mL] | MIC [2, 19] [µg/mL] | MIC [3] [µg/mL] | MIC [4] [µg/mL] | MIC [5] [µg/mL] | MIC [6] [µg/mL] | MIC [7] [µg/mL] | MIC (Escherichia coli GC 2203; [20]) [µg/mL] | MIC (Escherichia coli GC 2203; [21]) [µg/mL] | MIC ([8]; Escherichia coli, 18 h) [µg/mL] | MIC [9, 22] [µg/mL] | MIC [10, 23] [µg/mL] | MIC [11] [µg/mL] | MIC [12] [µg/mL] | MIC [13] [µg/mL] | MIC [14] [µg/mL] | MIC [15] [µg/mL] | MIC [16] [µg/mL] | also measured |
| --- | --- | --- | --- | --- | --- | --- | --- | --- | --- | --- | --- | --- | --- | --- | --- | --- | --- | --- | --- | --- | --- |
| COC(=O)c1c(O)ccc(O)c1C(=O)c1c(O)cc2c(c1O)[C@@H]1C=C[C@]3(C2)C(=C(O)c2c(O)cc(C)cc2[C@@H]3OC(C)=O)C1=O [Example 3a, Cyan-416 A] | > 64 | > 128 | 16 (≈ 26 µM) | 16 (≈ 26 µM) | 16 (≈ 26 µM) | 16 (≈ 26 µM) | 8 (≈ 13 µM) | 8 (≈ 13 µM) | 16 (≈ 26 µM) | > 64 | > 128 | 32 (≈ 52.1 µM) | 8 (≈ 13 µM) | 8 (≈ 13 µM) | 8 (≈ 13 µM) | 16 (≈ 26 µM) | 8 (≈ 13 µM) | 16 (≈ 26 µM) | 8 (≈ 13 µM) | 8 (≈ 13 µM) | MIC ([1]; Table 2, 18 hours at 35° C.): 16 µg/mL (≈ 26 µM); MIC ([2]; Table 2, 18 hours at 35° C.): 16 µg/mL (≈ 26 µM); MIC ([8]; Table 2, Escherichia coli GC 4560 (imp), 18 hours at 35° C.): 32 µg/mL (≈ 52.1 µM); MIC ([9]; Table 2, 18 hours at 35° C.): 8 µg/mL (≈ 13 µM); MIC ([10]; Table 2, 18 hours at 35° C.): 8 µg/mL (≈ 13 µM); MIC [17]: > 64 µg/mL |
| CCCCCC(=O)O[C@H]1c2cc(C)cc(O)c2C(O)=C2C(=O)[C@H]3C=C[C@]21Cc1cc(O)c(C(=O)c2c(O)ccc(O)c2C(=O)OC)c(O)c13 [Example 9, Cyan-416 B hexanoate] | – | > 128 | – | – | 4 (≈ 5.96 µM) | – | 2 (≈ 2.98 µM) | 4 (≈ 5.96 µM) | 4 (≈ 5.96 µM) | – | > 128 | 8 (≈ 11.9 µM) | – | – | – | 4 (≈ 5.96 µM) | 4 (≈ 5.96 µM) | 4 (≈ 5.96 µM) | 8 (≈ 11.9 µM) | 8 (≈ 11.9 µM) | MIC [1, 24]: 4 µg/mL (≈ 5.96 µM); MIC [2, 25]: 4 µg/mL (≈ 5.96 µM); MIC [9, 26]: 4 µg/mL (≈ 5.96 µM); MIC [10, 27]: 4 µg/mL (≈ 5.96 µM) |
| COC(=O)c1c(O)ccc(O)c1C(=O)c1c(O)cc(C)c(Cc2c(C)cc(O)c(C(=O)c3c(O)ccc(O)c3C(=O)OC)c2O)c1O [Example 4b, Cyan-416 E] | 64 (≈ 98.7 µM) | – | 64 (≈ 98.7 µM) | 64 (≈ 98.7 µM) | – | 64 (≈ 98.7 µM) | – | – | – | > 64 | – | 64 (≈ 98.7 µM) | 64 (≈ 98.7 µM) | 64 (≈ 98.7 µM) | 64 (≈ 98.7 µM) | – | – | – | – | – | MIC [17]: 64 µg/mL (≈ 98.7 µM) |
| COC(=O)c1c(O)ccc(O)c1C(=O)c1c(O)cc2c(c1O)[C@@H]1C=C[C@]3(C2)C(=C(O)c2c(O)cc(C)cc2[C@@H]3O)C1=O [Example 3b, Cyan-416 B] | > 64 | – | 32 (≈ 55.9 µM) | 64 (≈ 112 µM) | – | 64 (≈ 112 µM) | – | – | – | > 64 | – | 64 (≈ 112 µM) | 32 (≈ 55.9 µM) | 32 (≈ 55.9 µM) | 32 (≈ 55.9 µM) | – | – | – | – | – | MIC [17]: > 64 µg/mL |
| COC(=O)c1c(O)ccc(O)c1C(=O)c1c(O)cc(C)cc1O [Example 4a, Cyan-416 D] | > 64 | – | 32 (≈ 101 µM) | 64 (≈ 201 µM) | – | 64 (≈ 201 µM) | – | – | – | > 64 | – | 64 (≈ 201 µM) | 64 (≈ 201 µM) | 64 (≈ 201 µM) | 64 (≈ 201 µM) | – | – | – | – | – | MIC [17]: > 64 µg/mL |
| CCCCC(=O)O[C@H]1c2cc(C)cc(O)c2C(O)=C2C(=O)[C@H]3C=C[C@]21Cc1cc(O)c(C(=O)c2c(O)ccc(O)c2C(=O)OC)c(O)c13 [Example 8, Cyan-416 B pentanoate] | – | > 128 | – | – | 4 (≈ 6.09 µM) | – | 2 (≈ 3.05 µM) | 4 (≈ 6.09 µM) | 4 (≈ 6.09 µM) | – | > 128 | 8 (≈ 12.2 µM) | – | – | – | 4 (≈ 6.09 µM) | 4 (≈ 6.09 µM) | 4 (≈ 6.09 µM) | 8 (≈ 12.2 µM) | 8 (≈ 12.2 µM) | MIC [1, 24]: 4 µg/mL (≈ 6.09 µM); MIC [2, 25]: 4 µg/mL (≈ 6.09 µM); MIC [9, 26]: 4 µg/mL (≈ 6.09 µM); MIC [10, 27]: 4 µg/mL (≈ 6.09 µM) |
| CCCC(=O)O[C@H]1c2cc(C)cc(O)c2C(O)=C2C(=O)[C@H]3C=C[C@]21Cc1cc(O)c(C(=O)c2c(O)ccc(O)c2C(=O)OC)c(O)c13 [Example 6, Cyan-416 B butyrate] | – | > 128 | – | – | 16 (≈ 24.9 µM) | – | 8 (≈ 12.4 µM) | 16 (≈ 24.9 µM) | 8 (≈ 12.4 µM) | – | > 128 | 16 (≈ 24.9 µM) | – | – | – | 8 (≈ 12.4 µM) | 8 (≈ 12.4 µM) | 16 (≈ 24.9 µM) | 16 (≈ 24.9 µM) | 32 (≈ 49.8 µM) | MIC [1, 24]: 8 µg/mL (≈ 12.4 µM); MIC [2, 25]: 16 µg/mL (≈ 24.9 µM); MIC [9, 26]: 8 µg/mL (≈ 12.4 µM); MIC [10, 27]: 8 µg/mL (≈ 12.4 µM) |
| COC(=O)c1c(O)ccc(O)c1C(=O)c1c(O)cc2c(c1O)[C@@H]1C=C[C@]3(C2)C(=C(O)c2c(O)cc(C)cc2[C@@H]3OC(=O)C(C)C)C1=O [Example 7, Cyan-416 B isobutyrate] | – | > 128 | – | – | 4 (≈ 6.22 µM) | – | 2 (≈ 3.11 µM) | 8 (≈ 12.4 µM) | 4 (≈ 6.22 µM) | – | > 128 | 8 (≈ 12.4 µM) | – | – | – | 2 (≈ 3.11 µM) | 4 (≈ 6.22 µM) | 4 (≈ 6.22 µM) | 8 (≈ 12.4 µM) | 16 (≈ 24.9 µM) | MIC [1, 24]: 4 µg/mL (≈ 6.22 µM); MIC [2, 25]: 4 µg/mL (≈ 6.22 µM); MIC [9, 26]: 4 µg/mL (≈ 6.22 µM); MIC [10, 27]: 4 µg/mL (≈ 6.22 µM) |
| COC(=O)c1c(O)ccc(O)c1C(=O)c1c(O)cc2c(c1O)[C@@H]1C=C[C@@]3(C2)[C@@H](OC(C)=O)c2cc(C)cc(O)c2C(=O)C3(O)C1=O (stereo partly shown) [Example 3c, Cyan-416 C] | > 64 | – | 32 (≈ 50.7 µM) | 64 (≈ 101 µM) | – | 32 (≈ 50.7 µM) | – | – | – | > 64 | – | > 64 | 32 (≈ 50.7 µM) | 32 (≈ 50.7 µM) | 32 (≈ 50.7 µM) | – | – | – | – | – | MIC [17]: > 64 µg/mL |
